Test results as given in patent publication US20050282743A1, “Molecular interactions in cells” (Arbor Vita Corporation, priority 2001, published 2005).
Ends that are not written are not given here. Peptide text beside a SMILES is read from it. * marks the point of attachment. Biotin = O=C1N[C@H]2[C@H](CS[C@H]2CCCCC(=O)*)N1

Tests used:
Experiment in all cases: G' assay (10 uM PL peptide), results of TABLE 7 and TABLE 12
Assay type in all cases: binding
[1] = target: T1, PDZ protein (GST-PDZ fusion) (Homo sapiens, UniProt Q14160)
T1 construct: made in house; host or cells: E. coli (DH5alpha, BL21 or JM109)
Outline: (§1)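 Binding classes derive from A450 nm of bound biotin-tagged PL peptide. A score of 5 needs A450 above 4 in more than two repeats.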

[2] = target: T2, PDZ protein (GST-PDZ fusion) (Homo sapiens, UniProt O14907); conditions: PDZ TIP1, PDZ Domain 1
T2 construct: made in house; host or cells: E. coli (DH5alpha, BL21 or JM109)
T2 sequence (O14907 1-124): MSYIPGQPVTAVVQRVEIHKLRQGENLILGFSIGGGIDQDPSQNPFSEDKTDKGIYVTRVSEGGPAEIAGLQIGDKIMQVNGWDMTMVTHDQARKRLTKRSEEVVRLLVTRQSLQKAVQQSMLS
Outline: as §1

[3] = target: T3, PDZ protein (GST-PDZ fusion) (Homo sapiens, UniProt Q8NI35); conditions: PDZ INADL
T3 construct: made in house; host or cells: E. coli (DH5alpha, BL21 or JM109)
Outline: as §1

[4] = target: T4, PDZ protein (GST-PDZ fusion) (Homo sapiens, UniProt Q86UL8)
T4 construct: made in house; host or cells: E. coli (DH5alpha, BL21 or JM109)
Outline: as §1

[5] = target: T5, PDZ protein (GST-PDZ fusion) (Homo sapiens, UniProt O15018)
T5 construct: made in house; host or cells: E. coli (DH5alpha, BL21 or JM109)
Outline: as §1

[6] = target: T6, PDZ protein (GST-PDZ fusion) (Homo sapiens, UniProt Q12959)
T6 construct: made in house; host or cells: E. coli (DH5alpha, BL21 or JM109)
Outline: as §1

[7] = target: T7, PDZ protein (GST-PDZ fusion) (Homo sapiens, UniProt P78352); conditions: PDZ PSD95, PDZ Domain 1, 2, 3
T7 construct: made in house; host or cells: E. coli (DH5alpha, BL21 or JM109)
Outline: as §1

[8] = target: T8, PDZ protein (GST-PDZ fusion) (Homo sapiens, UniProt Q92796); conditions: PDZ NeDLG
T8 construct: made in house; host or cells: E. coli (DH5alpha, BL21 or JM109)
T8 sequence (Q92796 1-817): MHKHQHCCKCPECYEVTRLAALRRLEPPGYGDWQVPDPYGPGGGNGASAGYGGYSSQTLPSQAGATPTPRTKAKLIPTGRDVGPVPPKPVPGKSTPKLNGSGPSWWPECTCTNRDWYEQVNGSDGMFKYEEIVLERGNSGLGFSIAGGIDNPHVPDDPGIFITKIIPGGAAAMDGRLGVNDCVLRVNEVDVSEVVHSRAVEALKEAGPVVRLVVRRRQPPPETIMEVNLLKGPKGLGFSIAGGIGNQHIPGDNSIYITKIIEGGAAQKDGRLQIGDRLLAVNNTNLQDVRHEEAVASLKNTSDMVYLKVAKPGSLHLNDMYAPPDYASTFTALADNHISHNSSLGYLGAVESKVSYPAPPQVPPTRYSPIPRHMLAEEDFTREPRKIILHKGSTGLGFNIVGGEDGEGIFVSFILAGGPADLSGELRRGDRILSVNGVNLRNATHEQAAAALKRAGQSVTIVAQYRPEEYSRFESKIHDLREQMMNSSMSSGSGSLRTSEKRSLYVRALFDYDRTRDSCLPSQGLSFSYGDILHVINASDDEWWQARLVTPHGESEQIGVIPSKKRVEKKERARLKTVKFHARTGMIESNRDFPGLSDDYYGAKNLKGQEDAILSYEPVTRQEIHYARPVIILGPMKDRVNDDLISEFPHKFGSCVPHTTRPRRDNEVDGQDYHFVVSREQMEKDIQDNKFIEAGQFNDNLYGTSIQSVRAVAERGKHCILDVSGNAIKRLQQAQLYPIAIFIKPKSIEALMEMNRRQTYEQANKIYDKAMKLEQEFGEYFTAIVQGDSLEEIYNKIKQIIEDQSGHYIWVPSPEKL
Outline: as §1

[9] = PDZ atrophin-1 interacting Protein, PDZ Domain 1
[10] = PDZ Atrophin-1 Inter. Prot., PDZ Domain 5

T4 sequence (Q86UL8 whole entry, the tested form may be a part): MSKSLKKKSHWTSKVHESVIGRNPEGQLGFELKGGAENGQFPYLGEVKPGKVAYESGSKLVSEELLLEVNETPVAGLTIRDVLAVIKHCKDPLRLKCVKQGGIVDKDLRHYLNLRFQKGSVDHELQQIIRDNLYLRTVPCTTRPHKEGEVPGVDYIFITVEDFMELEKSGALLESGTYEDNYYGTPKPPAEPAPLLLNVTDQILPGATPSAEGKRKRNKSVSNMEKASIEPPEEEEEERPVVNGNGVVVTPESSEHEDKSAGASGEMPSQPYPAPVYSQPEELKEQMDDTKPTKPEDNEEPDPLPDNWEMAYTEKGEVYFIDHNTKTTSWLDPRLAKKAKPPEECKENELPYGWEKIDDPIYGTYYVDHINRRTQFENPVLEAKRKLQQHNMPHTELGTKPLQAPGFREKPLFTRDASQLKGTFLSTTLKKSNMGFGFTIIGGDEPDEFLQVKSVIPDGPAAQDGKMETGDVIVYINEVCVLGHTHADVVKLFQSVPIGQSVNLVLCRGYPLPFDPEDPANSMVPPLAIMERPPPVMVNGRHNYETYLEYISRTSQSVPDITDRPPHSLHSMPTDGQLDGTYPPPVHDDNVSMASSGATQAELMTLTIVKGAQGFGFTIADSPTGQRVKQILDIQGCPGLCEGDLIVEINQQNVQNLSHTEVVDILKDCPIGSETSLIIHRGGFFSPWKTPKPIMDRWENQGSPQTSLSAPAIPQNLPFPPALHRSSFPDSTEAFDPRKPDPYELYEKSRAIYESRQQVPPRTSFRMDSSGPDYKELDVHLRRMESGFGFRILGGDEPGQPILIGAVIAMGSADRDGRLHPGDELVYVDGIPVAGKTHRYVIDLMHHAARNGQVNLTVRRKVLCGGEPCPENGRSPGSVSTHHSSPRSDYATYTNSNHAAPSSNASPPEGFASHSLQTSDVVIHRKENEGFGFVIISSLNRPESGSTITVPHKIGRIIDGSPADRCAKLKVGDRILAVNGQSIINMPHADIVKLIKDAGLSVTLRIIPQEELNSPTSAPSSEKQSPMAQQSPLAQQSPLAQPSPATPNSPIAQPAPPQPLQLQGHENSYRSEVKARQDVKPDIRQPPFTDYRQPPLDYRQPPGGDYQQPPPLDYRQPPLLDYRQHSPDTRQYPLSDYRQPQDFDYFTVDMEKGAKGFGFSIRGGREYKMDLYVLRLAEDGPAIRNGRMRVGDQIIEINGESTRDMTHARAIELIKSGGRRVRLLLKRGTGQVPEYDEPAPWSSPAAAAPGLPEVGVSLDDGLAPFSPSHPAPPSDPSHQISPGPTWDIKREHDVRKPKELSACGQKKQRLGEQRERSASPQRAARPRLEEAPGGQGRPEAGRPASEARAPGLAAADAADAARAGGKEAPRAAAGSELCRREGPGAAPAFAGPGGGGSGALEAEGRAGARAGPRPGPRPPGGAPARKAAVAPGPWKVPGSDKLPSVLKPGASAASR
T5 sequence (O15018 whole entry, the tested form may be a part): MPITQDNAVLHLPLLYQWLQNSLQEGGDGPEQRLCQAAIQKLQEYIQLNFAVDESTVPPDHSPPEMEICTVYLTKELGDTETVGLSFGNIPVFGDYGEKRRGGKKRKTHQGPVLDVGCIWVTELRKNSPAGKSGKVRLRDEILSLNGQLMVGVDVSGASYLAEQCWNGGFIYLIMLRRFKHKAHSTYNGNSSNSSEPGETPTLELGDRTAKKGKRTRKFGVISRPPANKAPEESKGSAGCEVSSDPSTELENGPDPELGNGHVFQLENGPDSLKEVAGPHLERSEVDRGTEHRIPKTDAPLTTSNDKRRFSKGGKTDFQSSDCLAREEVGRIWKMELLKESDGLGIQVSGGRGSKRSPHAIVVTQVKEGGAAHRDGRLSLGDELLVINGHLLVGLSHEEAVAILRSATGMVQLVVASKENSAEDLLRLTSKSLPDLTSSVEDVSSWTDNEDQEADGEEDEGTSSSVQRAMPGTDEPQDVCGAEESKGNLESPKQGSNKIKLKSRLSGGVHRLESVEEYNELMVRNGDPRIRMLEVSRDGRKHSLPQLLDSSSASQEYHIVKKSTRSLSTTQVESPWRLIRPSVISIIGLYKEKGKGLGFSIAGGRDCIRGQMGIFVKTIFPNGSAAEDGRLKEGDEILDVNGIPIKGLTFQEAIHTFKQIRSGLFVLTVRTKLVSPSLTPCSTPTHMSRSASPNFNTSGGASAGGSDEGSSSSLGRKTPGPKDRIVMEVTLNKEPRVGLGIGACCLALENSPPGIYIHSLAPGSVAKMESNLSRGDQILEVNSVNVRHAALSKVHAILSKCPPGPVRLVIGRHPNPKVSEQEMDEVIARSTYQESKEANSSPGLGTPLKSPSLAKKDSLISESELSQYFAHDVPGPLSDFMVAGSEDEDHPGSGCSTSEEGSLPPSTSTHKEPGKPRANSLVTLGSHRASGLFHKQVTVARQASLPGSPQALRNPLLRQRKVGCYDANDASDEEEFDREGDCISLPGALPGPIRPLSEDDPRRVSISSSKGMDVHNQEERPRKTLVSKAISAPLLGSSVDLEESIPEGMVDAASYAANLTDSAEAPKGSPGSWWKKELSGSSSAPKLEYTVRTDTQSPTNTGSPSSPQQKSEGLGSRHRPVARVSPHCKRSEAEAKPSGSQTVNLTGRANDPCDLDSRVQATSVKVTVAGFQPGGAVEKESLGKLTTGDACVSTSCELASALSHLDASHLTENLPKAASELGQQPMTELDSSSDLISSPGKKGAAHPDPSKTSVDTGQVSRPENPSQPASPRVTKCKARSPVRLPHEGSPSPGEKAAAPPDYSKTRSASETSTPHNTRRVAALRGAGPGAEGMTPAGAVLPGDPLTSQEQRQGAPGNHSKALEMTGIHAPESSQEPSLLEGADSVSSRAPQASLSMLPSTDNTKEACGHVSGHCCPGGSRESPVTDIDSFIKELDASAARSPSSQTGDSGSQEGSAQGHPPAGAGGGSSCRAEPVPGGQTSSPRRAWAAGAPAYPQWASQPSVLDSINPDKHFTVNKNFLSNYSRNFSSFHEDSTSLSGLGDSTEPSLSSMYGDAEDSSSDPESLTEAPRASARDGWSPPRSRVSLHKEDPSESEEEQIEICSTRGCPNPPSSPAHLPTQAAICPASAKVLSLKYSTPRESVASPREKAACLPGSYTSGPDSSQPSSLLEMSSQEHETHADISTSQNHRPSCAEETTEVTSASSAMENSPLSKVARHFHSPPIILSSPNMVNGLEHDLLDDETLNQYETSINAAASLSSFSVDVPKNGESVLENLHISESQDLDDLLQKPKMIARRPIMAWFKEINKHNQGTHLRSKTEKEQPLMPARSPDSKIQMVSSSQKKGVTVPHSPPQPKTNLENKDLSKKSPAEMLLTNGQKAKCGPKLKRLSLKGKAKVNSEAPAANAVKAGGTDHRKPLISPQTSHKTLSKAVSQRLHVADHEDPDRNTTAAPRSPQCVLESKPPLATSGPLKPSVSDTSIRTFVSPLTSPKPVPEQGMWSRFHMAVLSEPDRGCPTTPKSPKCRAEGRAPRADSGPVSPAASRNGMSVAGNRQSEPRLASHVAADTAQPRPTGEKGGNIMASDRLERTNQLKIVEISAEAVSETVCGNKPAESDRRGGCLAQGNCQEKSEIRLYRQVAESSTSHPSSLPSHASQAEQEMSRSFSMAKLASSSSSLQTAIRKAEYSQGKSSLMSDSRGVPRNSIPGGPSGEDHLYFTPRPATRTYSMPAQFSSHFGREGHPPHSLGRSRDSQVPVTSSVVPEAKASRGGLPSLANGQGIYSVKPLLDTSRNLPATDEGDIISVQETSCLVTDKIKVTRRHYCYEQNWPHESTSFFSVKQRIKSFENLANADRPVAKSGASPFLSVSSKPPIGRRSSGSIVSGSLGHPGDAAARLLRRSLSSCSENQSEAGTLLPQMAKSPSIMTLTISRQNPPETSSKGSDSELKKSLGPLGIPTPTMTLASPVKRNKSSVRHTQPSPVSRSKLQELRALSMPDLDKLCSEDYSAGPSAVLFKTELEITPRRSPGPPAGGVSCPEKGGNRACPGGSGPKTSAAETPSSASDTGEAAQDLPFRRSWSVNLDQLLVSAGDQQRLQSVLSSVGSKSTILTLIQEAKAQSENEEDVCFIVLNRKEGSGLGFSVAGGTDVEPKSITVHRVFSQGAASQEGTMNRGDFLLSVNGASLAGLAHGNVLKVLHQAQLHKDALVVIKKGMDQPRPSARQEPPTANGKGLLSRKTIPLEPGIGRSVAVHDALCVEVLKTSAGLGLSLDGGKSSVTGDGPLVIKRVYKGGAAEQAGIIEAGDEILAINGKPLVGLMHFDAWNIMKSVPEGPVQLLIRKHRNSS
T7 sequence (P78352 whole entry, the tested form may be a part): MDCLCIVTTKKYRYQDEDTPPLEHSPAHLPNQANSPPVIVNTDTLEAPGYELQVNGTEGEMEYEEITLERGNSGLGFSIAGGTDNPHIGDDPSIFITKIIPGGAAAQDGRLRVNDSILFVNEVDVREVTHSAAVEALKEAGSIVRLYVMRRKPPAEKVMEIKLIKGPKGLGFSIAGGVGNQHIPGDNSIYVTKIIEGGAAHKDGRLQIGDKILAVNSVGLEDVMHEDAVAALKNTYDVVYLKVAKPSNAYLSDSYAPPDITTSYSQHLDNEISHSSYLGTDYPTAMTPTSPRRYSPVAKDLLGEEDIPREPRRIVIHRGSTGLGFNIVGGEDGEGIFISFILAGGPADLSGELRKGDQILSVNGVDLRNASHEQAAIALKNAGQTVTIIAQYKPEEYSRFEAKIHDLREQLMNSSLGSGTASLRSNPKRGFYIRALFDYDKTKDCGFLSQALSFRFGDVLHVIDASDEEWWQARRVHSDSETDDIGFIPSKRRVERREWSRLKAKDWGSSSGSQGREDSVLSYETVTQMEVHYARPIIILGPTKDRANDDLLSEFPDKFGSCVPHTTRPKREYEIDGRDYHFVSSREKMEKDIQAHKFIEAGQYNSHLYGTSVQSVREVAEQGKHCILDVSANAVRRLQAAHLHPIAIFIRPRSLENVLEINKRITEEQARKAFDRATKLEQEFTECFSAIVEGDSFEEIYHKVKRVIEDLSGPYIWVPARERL

| Molecule | Classification ([1]; PDZ KIAA0147, PDZ Domain 1) | Classification [2] | Classification [4, 9] | Classification ([3]; PDZ Domain 8) | Classification ([5]; PDZ AIPC, PDZ Domain 1) | Classification [4, 10] | Classification ([6]; PDZ DLG1, PDZ Domain 1, 2) | Classification [7] | Classification ([8]; PDZ Domain 1, 2) | further results |
| --- | --- | --- | --- | --- | --- | --- | --- | --- | --- | --- |
| CC[C@H](C)[C@H](NC(=O)CNC(=O)[C@H](CO)NC(=O)[C@H](Cc1ccccc1)NC(=O)[C@@H](NC(=O)[C@H](CS)NC(=O)CNC(=O)CNC(=O)[C@H](C)NC(=O)[C@@H]1CCCN1C(=O)[C@@H](NC(=O)[C@@H]1CCCN1C(=O)CCCC[C@@H]1SC[C@@H]2NC(=O)N[C@@H]21)[C@@H](C)CC)[C@@H](C)O)C(=O)N[C@@H](Cc1ccccc1)C(=O)N1CCC[C@H]1C(=O)N[C@H](C(=O)N[C@@H](CC(C)C)C(=O)N[C@H](C(=O)N[C@@H](CO)C(=O)N1CCC[C@H]1C(=O)N[C@@H](CC(C)C)C(=O)O)[C@@H](C)O)[C@@H](C)O [KIA 1481] (Biotin-PIPAGGCTFSGIFPTLTSPL-OH; C-terminus assumed) | 2 (A450 nm 1-2) | 2 (A450 nm 1-2) | – | – | – | – | – | – | – | Classification ([3]; PDZ Domain 5): 1 (A450 nm 0-1) |
| CC[C@H](C)[C@H](NC(=O)[C@H](CC(=O)O)NC(=O)[C@H](CCC(=O)O)NC(=O)[C@H](CCCNC(=N)N)NC(=O)[C@@H](NC(=O)CCCC[C@@H]1SC[C@@H]2NC(=O)N[C@@H]21)[C@@H](C)O)C(=O)N[C@@H](Cc1ccc(O)cc1)C(=O)N[C@H](C(=O)N[C@@H](CC(N)=O)C(=O)N[C@@H](Cc1ccc(O)cc1)C(=O)N1CCC[C@H]1C(=O)N[C@H](C(=O)N[C@@H](Cc1ccccc1)C(=O)N[C@@H](CO)C(=O)N[C@@H](CCCNC(=N)N)C(=O)N[C@@H](CCCNC(=N)N)C(=O)N1CCC[C@H]1C(=O)N[C@@H](CCCCN)C(=O)N[C@H](C(=O)N[C@@H](CCCNC(=N)N)C(=O)N[C@H](C(=O)O)C(C)C)[C@@H](C)O)[C@@H](C)O)C(C)C [DNAM-1] (Biotin-TREDIYVNYPTFSRRPKTRV-OH; C-terminus assumed) | – | 1 (A450 nm 0-1) | 3 (A450 nm 2-3) | 5 (A450 nm of 4 more than 2× repeated) | – | – | – | – | – | – |
| CC[C@H](C)[C@H](NC(=O)[C@H](CCC(N)=O)NC(=O)[C@@H](NC(=O)[C@H](Cc1c[nH]cn1)NC(=O)[C@H](CCC(N)=O)NC(=O)[C@H](CC(=O)O)NC(=O)[C@H](CCC(=O)O)NC(=O)[C@H](CC(=O)O)NC(=O)[C@H](Cc1ccccc1)NC(=O)[C@@H]1CCCN1C(=O)[C@H](CCC(=O)O)NC(=O)[C@H](CC(N)=O)NC(=O)[C@H](CCC(=O)O)NC(=O)[C@@H]1CCCN1C(=O)[C@H](CC(=O)O)NC(=O)[C@H](CO)NC(=O)[C@H](CC(=O)O)NC(=O)CCCC[C@@H]1SC[C@@H]2NC(=O)N[C@@H]21)[C@@H](C)O)C(=O)N[C@H](C(=O)N[C@@H](CCCCN)C(=O)N[C@H](C(=O)O)C(C)C)[C@@H](C)O [PTEN] | – | 2 (A450 nm 1-2) | – | 1 (A450 nm 0-1) | 1 (A450 nm 0-1) | 2 (A450 nm 1-2) | – | – | – | – |
| ELLQFCRTPNPALKNGQYWV (Biotin-ELLQFCRTPNPALKNGQYWV) | – | 1 (A450 nm 0-1) | 1 (A450 nm 0-1) | 3 (A450 nm 2-3) | 5 (A450 nm of 4 more than 2× repeated) | 2 (A450 nm 1-2) | – | – | – | Classification ([5]; PDZ KIAA0300, PDZ Domain 1): 2 (A450 nm 1-2); Classification ([4]; PDZ atrophin-1 interacting Protein, PDZ Domain 3): 2 (A450 nm 1-2); Classification ([3]; PDZ Domain 3): 3 (A450 nm 2-3); Classification ([3]; PDZ Domain 5): 5 (A450 nm of 4 more than 2× repeated) |
| APC—adenomatous polyposis coli protein (ESSGTQSPKRHSGSYLVTSV) | 1 (A450 nm 0-1) | 3 (A450 nm 2-3) | – | 2 (A450 nm 1-2) | – | – | 5 (A450 nm of 4 more than 2× repeated) | 5 (A450 nm of 4 more than 2× repeated) | 4 (A450 nm 3-4) | – |

The next lines start with results.

| Classification ([1]; PDZ KIAA0147, PDZ Domain 1) | Classification [2] | Classification [4, 9] | Classification ([3]; PDZ Domain 8) | Classification ([5]; PDZ AIPC, PDZ Domain 1) | Classification [4, 10] | Classification ([6]; PDZ DLG1, PDZ Domain 1, 2) | Classification [7] | Classification ([8]; PDZ Domain 1, 2) | Molecule | further results |
| --- | --- | --- | --- | --- | --- | --- | --- | --- | --- | --- |
| 2 (A450 nm 1-2) | 5 (A450 nm of 4 more than 2× repeated) | – | – | 2 (A450 nm 1-2) | 5 (A450 nm of 4 more than 2× repeated) | 1 (A450 nm 0-1) | – | – | CC(C)C[C@H](NC(=O)[C@H](CC(=O)O)NC(=O)[C@H](CO)NC(=O)[C@H](CCC(=O)O)NC(=O)CNC(=O)[C@H](Cc1ccc(O)cc1)NC(=O)[C@H](CC(C)C)NC(=O)[C@H](C)NC(=O)[C@H](CO)NC(=O)[C@H](CO)NC(=O)[C@H](Cc1ccccc1)NC(=O)[C@H](C)NC(=O)[C@H](C)NC(=O)[C@H](Cc1ccc(O)cc1)NC(=O)[C@H](CC(=O)O)NC(=O)[C@H](CC(C)C)NC(=O)[C@H](C)NC(=O)CNC(=O)[C@@H]1CCCN1C(=O)[C@@H](NC(=O)CCCC[C@@H]1SC[C@@H]2NC(=O)N[C@@H]21)C(C)C)C(=O)O [a-actinin 2] (Biotin-VPGALDYAAFSSALYGESDL-OH; C-terminus assumed) | Classification ([1]; PDZ KIAA0147, PDZ Domain 3): 3 (A450 nm 2-3); Classification ([6]; PDZ DLG1, PDZ Domain 2): 1 (A450 nm 0-1); Classification ([3]; PDZ Domain 3): 1 (A450 nm 0-1) |
| – | 1 (A450 nm 0-1) | 2 (A450 nm 1-2) | 1 (A450 nm 0-1) | – | – | 2 (A450 nm 1-2) | 2 (A450 nm 1-2) | 1 (A450 nm 0-1) | CC(C)C[C@H](NC(=O)CNC(=O)[C@@H](NC(=O)[C@H](CO)NC(=O)[C@H](CC(N)=O)NC(=O)[C@H](Cc1ccccc1)NC(=O)CNC(=O)[C@H](C)NC(=O)[C@H](C)NC(=O)[C@H](Cc1ccccc1)NC(=O)[C@@H](NC(=O)CCCC[C@@H]1SC[C@@H]2NC(=O)N[C@@H]21)[C@@H](C)O)[C@@H](C)O)C(=O)N1CCC[C@H]1C(=O)N[C@@H](Cc1c[nH]cn1)C(=O)N[C@@H](CO)C(=O)N[C@H](C(=O)N[C@H](C(=O)N[C@@H](CCCNC(=N)N)C(=O)N[C@H](C(=O)O)C(C)C)[C@@H](C)O)[C@@H](C)O [Neuroligin] (Biotin-TFAAGFNSTGLPHSTTRV-OH; C-terminus assumed) | Classification ([8]; PDZ Domain 3): 1 (A450 nm 0-1) |
| – | 1 (A450 nm 0-1) | – | – | – | 1 (A450 nm 0-1) | 1 (A450 nm 0-1) | 1 (A450 nm 0-1) | 1 (A450 nm 0-1) | CC[C@H](C)[C@H](NC(=O)[C@H](Cc1c[nH]cn1)NC(=O)[C@H](C)NC(=O)[C@H](C)NC(=O)[C@H](CO)NC(=O)[C@@H]1CCCN1C(=O)[C@H](CCCNC(=N)N)NC(=O)[C@H](CC(=O)O)NC(=O)[C@H](CCCCN)NC(=O)[C@@H]1CCCN1C(=O)[C@H](CC(=O)O)NC(=O)[C@H](CCC(=O)O)NC(=O)CCCC[C@@H]1SC[C@@H]2NC(=O)N[C@@H]21)C(=O)N[C@H](C(=O)N[C@@H](CCC(=O)O)C(=O)N[C@@H](C)C(=O)N[C@@H](CC(C)C)C(=O)N[C@@H](CCC(=O)O)C(=O)N[C@H](C(=O)N[C@@H](CC(=O)O)C(=O)N[C@H](C(=O)O)C(C)C)[C@@H](C)O)C(C)C [PDZ-binding kinase (PBK)] (Biotin-EDPKDRPSAAHIVEALETDV-OH; C-terminus assumed) | – |
| – | 5 (A450 nm of 4 more than 2× repeated) | – | 1 (A450 nm 0-1) | – | – | 3 (A450 nm 2-3) | 3 (A450 nm 2-3) | 2 (A450 nm 1-2) | RNIEEVYVGGKQVVPFSSSV (Biotin-RNIEEVYVGGKQVVPFSSSV) [Nedasin (s-form)] | – |
